From ChEMBL document CHEMBL3045770, “Design and synthesis of some thieno[2,3-c]pyridazine derivatives of expected anticancer activity” (2013)

Tests used:
Assay type in all cases: functional
TK-10 [1] = test: Cytotoxicity against Homo sapiens (human) TK10 assessed as cell growth at 10 uM after 48 hr by SRB assay relative to control; conditions: TK-10, 48 h, read-out: Activity
U-251 = test: Cytotoxicity against Homo sapiens (human) U251 assessed as cell growth at 10 uM after 48 hr by SRB assay relative to control; conditions: U-251, 48 h, read-out: Activity
BT-549 = test: Cytotoxicity against Homo sapiens (human) BT549 assessed as cell growth at 10 uM after 48 hr by SRB assay relative to control; conditions: BT-549, 48 h, read-out: Activity
UACC-62 = test: Cytotoxicity against Homo sapiens (human) UACC62 assessed as cell growth at 10 uM after 48 hr by SRB assay relative to control; conditions: UACC-62, 48 h, read-out: Activity
OVCAR-5 = test: Cytotoxicity against Homo sapiens (human) OVCAR5 assessed as cell growth at 10 uM after 48 hr by SRB assay relative to control; conditions: OVCAR-5, 48 h, read-out: Activity
SF-295 = test: Cytotoxicity against Homo sapiens (human) SF295 assessed as cell growth at 10 uM after 48 hr by SRB assay relative to control; conditions: SF-295, 48 h, read-out: Activity
RPMI-8226 = test: Cytotoxicity against Homo sapiens (human) RPMI8226 assessed as cell growth at 10 uM after 48 hr by SRB assay relative to control; conditions: RPMI-8226, 48 h, read-out: Activity
KM12 = test: Cytotoxicity against Homo sapiens (human) KM12 assessed as cell growth at 10 uM after 48 hr by SRB assay relative to control; conditions: KM12, 48 h, read-out: Activity
SR = test: Cytotoxicity against Homo sapiens (human) SR assessed as cell growth at 10 uM after 48 hr by SRB assay relative to control; conditions: read-out: Activity
HCC 2998 = test: Cytotoxicity against Homo sapiens (human) HCC2998 assessed as cell growth at 10 uM after 48 hr by SRB assay relative to control; conditions: HCC 2998, 48 h, read-out: Activity
HOP-92 = test: Cytotoxicity against Homo sapiens (human) HOP92 assessed as cell growth at 10 uM after 48 hr by SRB assay relative to control; conditions: HOP-92, 48 h, read-out: Activity
786-0 = test: Cytotoxicity against Homo sapiens (human) 786-0 assessed as cell growth at 10 uM after 48 hr by SRB assay relative to control; conditions: 786-0, 48 h, read-out: Activity
ACHN [2] = test: Cytotoxicity against Homo sapiens (human) ACHN assessed as cell growth at 10 uM after 48 hr by SRB assay relative to control; conditions: read-out: Activity
CCRF-CEM = test: Cytotoxicity against Homo sapiens (human) CCRF-CEM assessed as cell growth at 10 uM after 48 hr by SRB assay relative to control; conditions: read-out: Activity
SF-539 = test: Cytotoxicity against Homo sapiens (human) SF539 assessed as cell growth at 10 uM after 48 hr by SRB assay relative to control; conditions: SF-539, 48 h, read-out: Activity
T47D = test: Cytotoxicity against Homo sapiens (human) T47D assessed as cell growth at 10 uM after 48 hr by SRB assay relative to control; conditions: read-out: Activity
Hs-578T = test: Cytotoxicity against Homo sapiens (human) Hs 578T assessed as cell growth at 10 uM after 48 hr by SRB assay relative to control; conditions: read-out: Activity
UO-31 = test: Cytotoxicity against Homo sapiens (human) UO31 assessed as cell growth at 10 uM after 48 hr by SRB assay relative to control; conditions: UO-31, 48 h, read-out: Activity
A549 = test: Cytotoxicity against Homo sapiens (human) A549 assessed as cell growth at 10 uM after 48 hr by SRB assay relative to control; conditions: A549, 48 h, read-out: Activity
NCI-H226 [3] = test: Cytotoxicity against Homo sapiens (human) NCI-H226 assessed as cell growth at 10 uM after 48 hr by SRB assay relative to control; conditions: NCI-H226, 48 h, read-out: Activity
MOLT-4 = test: Cytotoxicity against Homo sapiens (human) MOLT4 assessed as cell growth at 10 uM after 48 hr by SRB assay relative to control; conditions: MOLT-4, 48 h, read-out: Activity
Malme-3M = test: Cytotoxicity against Homo sapiens (human) MALME-3M assessed as cell growth at 10 uM after 48 hr by SRB assay relative to control; conditions: read-out: Activity
MDA-MB-231 = test: Cytotoxicity against Homo sapiens (human) MDA-MB-231 cells after 48 hr by SRB assay; conditions: MDA-MB-231, 48 h
EKVX = test: Cytotoxicity against Homo sapiens (human) EKVX cells after 48 hr by SRB assay
UACC-257 = test: Cytotoxicity against Homo sapiens (human) UACC257 cells after 48 hr by SRB assay; conditions: UACC-257, 48 h
NCI-H460 = test: Cytotoxicity against Homo sapiens (human) NCI-H460 cells after 48 hr by SRB assay; conditions: NCI-H460, 48 h
NCI-H226 [4] = test: Cytotoxicity against Homo sapiens (human) NCI-H226 cells after 48 hr by SRB assay; conditions: NCI-H226, 48 h
NCI-H322M [5] = test: Cytotoxicity against Homo sapiens (human) NCI-H322M cells after 48 hr by SRB assay
COLO 205 = test: Cytotoxicity against Homo sapiens (human) COLO205 cells after 48 hr by SRB assay; conditions: COLO 205, 48 h
SK-MEL-28 = test: Cytotoxicity against Homo sapiens (human) SK-MEL-28 cells after 48 hr by SRB assay; conditions: SK-MEL-28, 48 h
TK-10 [6] = test: Cytotoxicity against Homo sapiens (human) TK10 cells after 48 hr by SRB assay; conditions: TK-10, 48 h
ACHN [7] = test: Cytotoxicity against Homo sapiens (human) ACHN cells after 48 hr by SRB assay
NCI-H322M [8] = test: Cytotoxicity against Homo sapiens (human) NCI-H322M assessed as cell growth at 10 uM after 48 hr by SRB assay relative to control; conditions: read-out: Activity
[9] = read-out: LC50 (the source's name)

CC(=O)Oc1c(C2=NN(C(C)=O)C(c3ccccc3[N+](=O)[O-])O2)sc2nnc(-c3ccccc3)c(-c3ccccc3)c12 (configuration not stated)
growth at 10 µM (TK-10 [1]): 107% | growth at 10 µM (U-251): 80.5% | growth at 10 µM (BT-549): 89.8% | growth at 10 µM (UACC-62): 80% | growth at 10 µM (OVCAR-5): 95.1% | growth at 10 µM (SF-295): 85% | growth at 10 µM (RPMI-8226): 57.4% | growth at 10 µM (KM12): 108% | growth at 10 µM (SR): 49% | growth at 10 µM (HCC 2998): 120% | growth at 10 µM (HOP-92): 72.3% | growth at 10 µM (786-0): 102% | growth at 10 µM (ACHN [2]): 86.8% | growth at 10 µM (CCRF-CEM): 19.6% | growth at 10 µM (SF-539): 107% | growth at 10 µM (T47D): 97.5% | growth at 10 µM (Hs-578T): 114% | growth at 10 µM (UO-31): 78.9% | growth at 10 µM (A549): 103% | growth at 10 µM (NCI-H226 [3]): 93% | growth at 10 µM (MOLT-4): 47.2% | growth at 10 µM (Malme-3M): 93.2%

Oc1c(-c2nnc(-c3ccc(Cl)cc3)o2)sc2nnc(-c3ccccc3)c(-c3ccccc3)c12
GI50 (MDA-MB-231): 4.56 µM | TGI (MDA-MB-231): 12.3 µM | CC50 (MDA-MB-231; [9]): 0.0183 µM | growth at 10 µM (TK-10 [1]): 59% | growth at 10 µM (U-251): 32.6% | GI50 (EKVX): 4.05 µM | TGI (EKVX): 11.2 µM | CC50 (EKVX; [9]): 0.0183 µM | growth at 10 µM (BT-549): 56% | growth at 10 µM (UACC-62): 38% | growth at 10 µM (OVCAR-5): 84.8% | growth at 10 µM (SF-295): 23.5% | growth at 10 µM (RPMI-8226): 40.4% | growth at 10 µM (KM12): 39.2% | GI50 (UACC-257): 6.16 µM | TGI (UACC-257): 15 µM | CC50 (UACC-257; [9]): 0.0183 µM | GI50 (NCI-H460): 3.15 µM | TGI (NCI-H460): 8.07 µM | CC50 (NCI-H460; [9]): 0.0183 µM | GI50 (NCI-H226 [4]): 3.06 µM | TGI (NCI-H226 [4]): 18.3 µM | CC50 (NCI-H226 [4]; [9]): 0.0183 µM | growth at 10 µM (SR): 35.1% | GI50 (NCI-H322M [5]): 4.17 µM | TGI (NCI-H322M [5]): 10.6 µM | CC50 (NCI-H322M [5]; [9]): 0.0183 µM | growth at 10 µM (HCC 2998): 54.7% | GI50 (COLO 205): 4.7 µM | TGI (COLO 205): 18.3 µM | CC50 (COLO 205; [9]): 0.0183 µM | GI50 (SK-MEL-28): 1.14 µM | TGI (SK-MEL-28): 18.3 µM | CC50 (SK-MEL-28; [9]): 0.0183 µM | GI50 (TK-10 [6]): 5.14 µM | TGI (TK-10 [6]): 16.9 µM | CC50 (TK-10 [6]; [9]): 0.0183 µM | growth at 10 µM (HOP-92): 54.5% | growth at 10 µM (786-0): 61.1% | growth at 10 µM (ACHN [2]): 54% | growth at 10 µM (CCRF-CEM): 27.6% | growth at 10 µM (SF-539): 55% | GI50 (ACHN [7]): 4.25 µM | TGI (ACHN [7]): 17.4 µM | CC50 (ACHN [7]; [9]): 0.0183 µM | growth at 10 µM (T47D): 53% | growth at 10 µM (Hs-578T): 62.4% | growth at 10 µM (A549): 51.2% | growth at 10 µM (NCI-H226 [3]): 67.2% | growth at 10 µM (MOLT-4): 35.8%

CC(=O)Oc1c(C2=NN(C(C)=O)C(c3ccc(F)cc3)O2)sc2nnc(-c3ccccc3)c(-c3ccccc3)c12 (configuration not stated)
growth at 10 µM (TK-10 [1]): 94.1% | growth at 10 µM (U-251): 105% | growth at 10 µM (BT-549): 65.3% | growth at 10 µM (UACC-62): 57.5% | growth at 10 µM (OVCAR-5): 95.3% | growth at 10 µM (RPMI-8226): 71.3% | growth at 10 µM (KM12): 81.7% | growth at 10 µM (SR): 79.3% | growth at 10 µM (HCC 2998): 82.8% | growth at 10 µM (NCI-H322M [8]): 85.7% | growth at 10 µM (HOP-92): 46.2% | growth at 10 µM (786-0): 94.7% | growth at 10 µM (ACHN [2]): 72% | growth at 10 µM (CCRF-CEM): 39.1% | growth at 10 µM (SF-539): 104% | growth at 10 µM (T47D): 90% | growth at 10 µM (Hs-578T): 120% | growth at 10 µM (UO-31): 83.3% | growth at 10 µM (NCI-H226 [3]): 92.4% | growth at 10 µM (MOLT-4): 55.1%
